Assays:
[1] = target: TEM-1 β-lactamase WT (native enzyme) (Escherichia coli, UniProt P62593); test: DSF shift in Tm after incubation with moxalactam, WT; type: binding; conditions: 100-fold molar excess moxalactam
[2] = target: TEM-1 β-lactamase M182T/G238S (Escherichia coli, UniProt P62593, G236S/M180T); test: DSF shift in Tm after incubation with moxalactam, M182T/G238S; type: binding; conditions: 100-fold molar excess moxalactam
[3] = target: TEM-1 β-lactamase G238S (Escherichia coli, UniProt P62593, G236S); test: DSF shift in Tm after incubation with moxalactam, G238S; type: binding; conditions: 100-fold molar excess moxalactam
[4] = target: TEM-1 β-lactamase M182T (Escherichia coli, UniProt P62593, M180T); test: DSF shift in Tm after incubation with moxalactam, M182T; type: binding; conditions: 100-fold molar excess moxalactam
[5] = test system: Sor/CR colloids; type: binding; conditions: concentration of TEM-1 mutant at which 50% of fluorescent L2gd is displaced; 100 nM 5-MF-L2gd, 20 μM Sor/CR colloids
[6] = van't Hoff enthalpy of unfolding; type: physicochemical; conditions: Table S1

Molecule	lowering of Tm [1]	effect on Tm [2]	destabilization (lowering of Tm) [3]	destabilization (lowering of Tm) [4]	EC50 [5]	van't Hoff enthalpy of unfolding [6]
CO[C@@]1(NC(=O)[C@H](C(=O)O)c2ccc(O)cc2)C(=O)N2C(C(=O)O)=C(CSc3nnnn3C)CO[C@@H]21 [moxalactam]	4.5 °C	no substantial effect	1.9 °C	4.1 °C	–	–
WT: wild-type TEM-1 β-lactamase (protein, UniProt P62593 24-286, looked up) Beta-lactamase TEM: HPETLVKVKDAEDQLGARVGYIELDLNSGKILESFRPEERFPMMSTFKVLLCGAVLSRVDAGQEQLGRRIHYSQNDLVEYSPVTEKHLTDGMTVRELCSAAITMSDNTAANLLLTTIGGPKELTAFLHNMGDHVTRLDRWEPELNEAIPNDERDTTMPAAMATTLRKLLTGELLTLASRQQLIDWMEADKVAGPLLRSALPAGWFIADKSGAGERGSRGIIAALGPDGKPSRIVVIYTTGSQATMDERNRQIAEIGASLIKHW	–	–	–	–	577 ± 303 µM	139.5 kcal/mol
